Experimental data published in the supplement of paper PMC5908809.

What was measured:
NK-YS (IL-2 2.5 ng/mL) [1] = assay: drug sensitivity score (DSS) (DSS units); higher = more sensitive; extreme values may be limits of the assay; settings: 72 h
SNK-6 (IL-2 2.5 ng/mL) [2] = assay: as above; settings: 72 h
NK-92 (IL-2 2.5 ng/mL) [3] = assay: as above; settings: 72 h
NKL (IL-2 2.5 ng/mL) [4] = assay: as above; settings: 72 h
DERL-7 (IL-2 2.5 ng/mL) [5] = assay: as above; settings: 72 h
IMC-1 (IL-2 20 ng/mL) [6] = assay: as above; settings: 72 h
[7] = tested on: normal primary NK cells, pool 3 (3 donors) (IL-2 2.5 ng/mL); assay: as above; settings: 72 h
KAI3 (IL-2 2.5 ng/mL) [8] = assay: as above; settings: 72 h
[9] = tested on: normal primary NK cells, pool 1 (3 donors), resting (IL-2 0 ng/mL); assay: as above; settings: 72 h
[10] = tested on: normal primary NK cells, pool 2 (3 donors) (IL-2 2.5 ng/mL); assay: as above; settings: 72 h
[11] = tested on: normal primary NK cells, pool 1 (3 donors) (IL-2 2.5 ng/mL); assay: as above; settings: 72 h
KHYG-1 (IL-2 2.5 ng/mL) [12] = assay: as above; settings: 72 h
YT (IL-2 2.5 ng/mL) [13] = assay: as above; settings: 72 h
[14] = tested on: normal NK cells expanded with K562-aAPC; assay: as above; settings: 72 h; IL-2 2.5 ng/mL
Experimental: (§1)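 Drug sensitivity and resistance testing on K562-aAPC-expanded normal NK cells: 5 concentrations (10-fold steps over a 10,000-fold range), 72 h at 37 °C, viability by CellTiter-Glo normalised to DMSO and benzethonium chloride controls; DSS from the fitted curve.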

[15] = tested on: normal NK cells expanded with K562-aAPC; assay: percent inhibition of viability; higher = more inhibition; settings: 72 h, IL-2 2.5 ng/mL
Experimental: as §1

NK-YS (IL-2 2.5 ng/mL) [16] = assay: as above; settings: 72 h
SNK-6 (IL-2 2.5 ng/mL) [17] = assay: as above; settings: 72 h
NK-92 (IL-2 2.5 ng/mL) [18] = assay: as above; settings: 72 h
NKL (IL-2 2.5 ng/mL) [19] = assay: as above; settings: 72 h
DERL-7 (IL-2 2.5 ng/mL) [20] = assay: as above; settings: 72 h
IMC-1 (IL-2 20 ng/mL) [21] = assay: as above; settings: 72 h
[22] = tested on: normal primary NK cells, pool 3 (3 donors) (IL-2 2.5 ng/mL); assay: as above; settings: 72 h
KAI3 (IL-2 2.5 ng/mL) [23] = assay: as above; settings: 72 h
[24] = tested on: normal primary NK cells, pool 1 (3 donors), resting (IL-2 0 ng/mL); assay: as above; settings: 72 h
[25] = tested on: normal primary NK cells, pool 2 (3 donors) (IL-2 2.5 ng/mL); assay: as above; settings: 72 h
[26] = tested on: normal primary NK cells, pool 1 (3 donors) (IL-2 2.5 ng/mL); assay: as above; settings: 72 h
KHYG-1 (IL-2 2.5 ng/mL) [27] = assay: as above; settings: 72 h
YT (IL-2 2.5 ng/mL) [28] = assay: as above; settings: 72 h

CN(c1ccccc1CNc1nc(Nc2ccc3c(c2)CC(=O)N3)ncc1C(F)(F)F)S(C)(=O)=O (max concentration tested 10000 nM)
Settings | drug sensitivity score
DERL-7 (IL-2 2.5 ng/mL) [5] | 14.4
IMC-1 (IL-2 20 ng/mL) [6] | 11.1
KAI3 (IL-2 2.5 ng/mL) [8] | 9.97
KHYG-1 (IL-2 2.5 ng/mL) [12] | 14.9
NK-92 (IL-2 2.5 ng/mL) [3] | 8.85
NK-YS (IL-2 2.5 ng/mL) [1] | 11.6
NKL (IL-2 2.5 ng/mL) [4] | 13.3
SNK-6 (IL-2 2.5 ng/mL) [2] | 5.93
YT (IL-2 2.5 ng/mL) [13] | 9.64
[7] | 8.12
[9] | 3.72
[10] | 8.64
[11] | 10.5
[14] | 12.4

percent inhibition of viability [%]
Settings | 1 nM | 10 nM | 100 nM | 1000 nM | 10000 nM
DERL-7 (IL-2 2.5 ng/mL) [20] | -11.5 | 1.19 | -8.22 | 78.2 | 101
IMC-1 (IL-2 20 ng/mL) [21] | -8.05 | -9.43 | -5.71 | 42.5 | 100
KAI3 (IL-2 2.5 ng/mL) [23] | 2.15 | -4.73 | -2.81 | 30.6 | 106
KHYG-1 (IL-2 2.5 ng/mL) [27] | 3.44 | -1.15 | 1.69 | 81.4 | 109
NK-92 (IL-2 2.5 ng/mL) [18] | -16.5 | -24 | -36 | 20.4 | 108
NK-YS (IL-2 2.5 ng/mL) [16] | -1.08 | -5.55 | -3.8 | 48.1 | 106
NKL (IL-2 2.5 ng/mL) [19] | -5.61 | -8.98 | 4.68 | 65.6 | 109
SNK-6 (IL-2 2.5 ng/mL) [17] | -0.86 | -15.1 | -15.1 | 15.3 | 64.4
YT (IL-2 2.5 ng/mL) [28] | 0.31 | -4.2 | -5.3 | 27.2 | 109
[15] | -7.88 | -4.41 | -2.88 | 58 | 101
[22] | -4.56 | -2.11 | -3.97 | 15.6 | 100
[24] | -21.8 | -18.3 | -4.27 | -35.7 | 91.4
[25] | -24.5 | -16.5 | -8.34 | 20.1 | 98.1
[26] | 4.57 | -5.98 | 14.5 | 42.7 | 99.6
